Results published in patent publication US20150152035A1, “COSMETIC USE OF SALICYLIC ACID DERIVATIVES” (Avon Products, Inc,, priority 2013, published 2015).

Columns and labels:
[1] = target: T1, recombinant human (rh) KLK5 protease (Homo sapiens, UniProt Q9Y337); test: Enzymatic activity of Kallikrein 5 (KLK5), fluorogenic peptide substrate Boc-V-P-R-AMC; assay type: biochemical; conditions: for KLK5 activity compared to that of salicylic acid: relative to salicylic acid; for stimulation of KLK5 enzymatic activity: rhKLK5 pre-incubated with test compound 60 seconds, rate of substrate cleavage
T1 construct: purchased R&D Systems 1108-SE
T1 sequence (Q9Y337 23-293): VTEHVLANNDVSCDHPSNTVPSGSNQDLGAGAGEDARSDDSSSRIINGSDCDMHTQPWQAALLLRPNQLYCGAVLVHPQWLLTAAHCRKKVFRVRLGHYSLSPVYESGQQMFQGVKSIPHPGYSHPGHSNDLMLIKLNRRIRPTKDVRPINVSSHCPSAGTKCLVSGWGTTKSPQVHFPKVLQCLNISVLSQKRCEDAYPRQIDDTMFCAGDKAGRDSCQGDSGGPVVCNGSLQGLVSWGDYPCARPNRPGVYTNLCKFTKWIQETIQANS
Excerpt: In the stratum corneum, skin's outermost layer, cell-to-cell cohesion depends primarily on proteins known as the corneodesmosomes. During skin remodeling and renewal dead cells are shed from the skin surface by the action of native proteases that break down the corneodesmosomes. […] Hypothetically, up-regulation of the activities of these proteases using different active candidates could be utilized to increase the rate of shedding of dead skin, thus providing a natural means for skin exfoliation. To this end, the enzymatic activity of a member of the KLK family, recombinant human (rh) KLK5, was monitored following pre-incubation with actives and measuring the rate of peptide bond cleavage of a synthetic substrate.
Enzymatic activity of KLK5 was measured by incubating recombinant human (rh) KLK5 protease (R&D Systems, Cat No. 1108-SE) with a specific fluorogenic peptide substrate Boc-V-P-R-AMC (R& D Systems, Cat No. ES011). The substrate is conjugated to a quenched fluorescent group. Upon cleavage of the adjacent peptide bond, the fluorescent signal is released, resulting in a measurable emission at 535 nm when excited at 340 nm wavelength. Increase in fluorescence reading indicates an increase in rhKLK5 activity. The test compounds were reacted with recombinant rhKLK5 protease for 60 seconds followed by addition of Boc-V-P-R-AMC Fluorogenic Peptide Substrate. After 60 seconds of incubation, fluorescence was measured at 340 nm (Excitation wavelength) and […] (Emission wavelength) every 1 minute for 7 minutes. Rate (kinetics) of enzyme activity was calculated as follows: Rate of enzyme activity=Change of fluorescent reading (after background correction)/Change of reaction time (min). Percent change of activity due to a test compound was calculated by comparing rate of enzyme activity in the presence of the test compound to that of a control without the test compound and statistical significance was calculated using a t-test. Additionally, the rate of activity of the compounds was compared to that of salicylic acid.

[2] = Skin PAMPA parallel artificial membrane penetration assay; assay type: in vitro ADME; conditions: donor pH 4.25, acceptor pH 7.4, 50 nM, two hours incubation; relative to salicylic acid
Method: Several salicylic acid derivatives were assessed for their ability to penetrate skin. Each of the compounds was formulated in an aqueous buffer, with a final pH of 4.25 at a concentration of 50 nM. The skin permeability of the compounds was measured using a high throughput transdermal permeability model, the parallel artificial membrane penetration assay (Skin PAMPA™), which uses a skin mimetic artificial membrane that simulates the barrier properties of the strateum corneum.
Briefly, the Skin PAMPA™ assay is a sandwich assay that utilizes two 96-well plate assemblies, one of which acts as the acceptor chambers (comprising a buffer), and one of which acts as the donor chambers (comprising a buffer and the compound to be tested). […] After an incubation period, the donor and acceptor chambers are analyzed for the amount of compound present.
In the current experiments, the acceptor chamber included an acceptor solution made from Prisma™ HT buffer solution (Pion, Inc.) that was adjusted to a pH of 7.4±0.05 using 1.0 M NaOH, and the donor chamber included a donor solution made from Prisma™ HT buffer solution (Pion, Inc.) that was adjusted to a pH of 4.25±0.05 using 1.0 M NaOH. […] Effective permeability was then calculated by the same method as Sinko et al., Eur. J. Pharm. […]

Row | Structure (SMILES) | KLK5 activity compared to that of salicylic acid [1] | stimulation of KLK5 enzymatic activity [1] | skin permeability (effective permeability) [2]
1 | CC(C)(C)c1cc(O)c(C(=O)O)c(C(C)(C)C)c1 [Compound B, 4,6-di-tert-butyl salicylic acid] | superior KLK5 activity as compared to salicylic acid | potent stimulators of KLK5 | highest permeability
2 | CC(C)c1cc(O)c(C(=O)O)c(C(C)C)c1 [Compound A, 4,6-diisopropyl salicylic acid] | superior KLK5 activity as compared to salicylic acid | potent stimulators of KLK5 | highest permeability
